In patent US12049439B2 (OrsoBio, Inc., priority 2018, dated 2024):
Read-outs that look alike come from different tables or passages of the source.

System: PC-3 cells
Assay: PC-3 Oxygen Rate Consumption (OCR) Assay
Format: cell-based
Conditions: medium with 2% FBS, OCR at 3-min post-injection normalized to % increase over DMSO-treated cells, concentration for half-maximal OCR increase, read-out: EC50-PC3-OCR-FBS-3min
In short: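 PC-3 cells seeded a day before, equilibrated 1 h in XF medium with 10 mM glucose, 1 mM pyruvate, 2% FBS, non-CO2 at 37 °C. Compound injected after basal OCR reads; OCR at 3 min post-injection normalized as % increase over DMSO, EC50 = half-maximal increase; six replicates.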

Compound | EC50 (Homo sapiens, 0.05 h) [µM] | EC50 [µM]
CS(=O)(=O)Nc1cc(S(F)(F)(F)(F)F)ccc1C(=O)NC12CCC(C#N)(CC1)CC2 [Example 117, N-(4-cyanobicyclo[2.2.2]octan-1-yl)-2-(methylsulfonamido)-4-(pentafluoro-λ^6-sulfanyl)benzamide] | 4.02 | –
CS(=O)(=O)c1ccc(S(=O)(=O)Nc2ccc(C(F)(F)F)cc2C(=O)NC23CCC(C#N)(CC2)CC3)cc1 [Example 118, N-(4-cyanobicyclo[2.2.2]octan-1-yl)-2-((4-(methylsulfonyl)phenyl)sulfonamido)-5-(trifluoromethyl)benzamide] | 49.2 | –
N#CC12CCC(NC(=O)c3cc(C(F)(F)F)ccc3NS(=O)(=O)c3ccc(F)cc3)(CC1)CC2 [Example 119, N-(4-cyanobicyclo[2.2.2]octan-1-yl)-2-((4-fluorophenyl)sulfonamido)-5-(trifluoromethyl)benzamide] | 1.26 | –
CCS(=O)(=O)Nc1ccc(C(F)(F)F)cc1C(=O)NC12CCC(C#N)(CC1)CC2 [Example 120, N-(4-cyanobicyclo[2.2.2]octan-1-yl)-2-(ethylsulfonamido)-5-(trifluoromethyl)benzamide] | 8.01 | –
COc1ccc(S(=O)(=O)Nc2ccc(C(F)(F)F)cc2C(=O)NC23CCC(C#N)(CC2)CC3)cc1 [Example 121, N-(4-cyanobicyclo[2.2.2]octan-1-yl)-2-((4-methoxyphenyl)sulfonamido)-5-(trifluoromethyl)benzamide] | 2.26 | –
N#CC12CCC(NC(=O)c3cc(C(F)(F)F)ccc3NS(=O)(=O)c3ccccc3)(CC1)CC2 [Example 122, N-(4-cyanobicyclo[2.2.2]octan-1-yl)-2-(phenylsulfonamido)-5-(trifluoromethyl)benzamide] | 1.52 | –
CC(C)(C)S(=O)(=O)Nc1ccc(C#N)cc1C(=O)NC12CCC(C#N)(CC1)CC2 [Example 123, 5-cyano-N-(4-cyanobicyclo[2.2.2]octan-1-yl)-2-((1,1-dimethylethyl)sulfonamido)benzamide] | 4.84 | –
N#Cc1ccc(NS(=O)(=O)C2CC2)c(C(=O)NC23CCC(C#N)(CC2)CC3)c1 [Example 124, 5-cyano-N-(4-cyanobicyclo[2.2.2]octan-1-yl)-2-(cyclopropanesulfonamido)benzamide] | 79.4 | –
N#CC12CCC(NC(=O)c3cc(C(F)(F)F)ccc3NS(=O)(=O)C3CC3)(CC1)CC2 [Example 125, N-(4-cyanobicyclo[2.2.2]octan-1-yl)-2-(cyclopropanesulfonamido)-5-(trifluoromethyl)benzamide] | 12.4 | –
CCCS(=O)(=O)Nc1ccc(C(F)(F)F)cc1C(=O)NC12CCC(C#N)(CC1)CC2 [Example 126, N-(4-cyanobicyclo[2.2.2]octan-1-yl)-2-(propylsulfonamido)-5-(trifluoromethyl)benzamide] | 5.12 | –
CCCCS(=O)(=O)Nc1ccc(C(F)(F)F)cc1C(=O)NC12CCC(C#N)(CC1)CC2 [Example 127, 2-(butylsulfonamido)-N-(4-cyanobicyclo[2.2.2]octan-1-yl)-5-(trifluoromethyl)benzamide] | 2.41 | –
COCCS(=O)(=O)Nc1ccc(C(F)(F)F)cc1C(=O)NC12CCC(C#N)(CC1)CC2 [Example 128, N-(4-cyanobicyclo[2.2.2]octan-1-yl)-2-((2-methoxyethyl)sulfonamido)-5-(trifluoromethyl)benzamide] | 15.4 | –
CCCCS(=O)(=O)Nc1ccc(C#N)cc1C(=O)NC12CCC(C#N)(CC1)CC2 [Example 129, 2-(butylsulfonamido)-5-cyano-N-(4-cyanobicyclo[2.2.2]octan-1-yl)benzamide] | 24.3 | –
N#CC12CCC(NC(=O)c3cc(C(F)(F)F)ccc3NS(=O)(=O)N3CCCC3)(CC1)CC2 [Example 130, N-(4-cyanobicyclo[2.2.2]octan-1-yl)-2-(pyrrolidine-1-sulfonamido)-5-(trifluoromethyl)benzamide] | 4.68 | –
N#Cc1ccc(NS(=O)(=O)N2CCCC2)c(C(=O)NC23CCC(C#N)(CC2)CC3)c1 [Example 131, 5-cyano-N-(4-cyanobicyclo[2.2.2]octan-1-yl)-2-(pyrrolidine-1-sulfonamido)benzamide] | 19.5 | –
N#Cc1ccc(NS(=O)(=O)N2CCC2)c(C(=O)NC23CCC(C#N)(CC2)CC3)c1 [Example 132, 2-(azetidine-1-sulfonamido)-5-cyano-N-(4-cyanobicyclo[2.2.2]octan-1-yl)benzamide] | 50.9 | –
CCS(=O)(=O)Nc1cc(C(F)(F)F)ccc1C(=O)NC12CCC(C#N)(CC1)CC2 [Example 133, N-(4-cyanobicyclo[2.2.2]octan-1-yl)-2-(ethylsulfonamido)-4-(trifluoromethyl)benzamide] | 14.7 | –
N#CC12CCC(NC(=O)c3ccc(F)cc3NS(=O)(=O)CCC(F)(F)F)(CC1)CC2 [Example 134, N-(4-cyanobicyclo[2.2.2]octan-1-yl)-4-fluoro-2-((3,3,3-trifluoropropyl)sulfonamido)benzamide] | 2.68 | –

Compound | EC50 (Homo sapiens, 0.05 h) [µM] | EC50 [µM]
N#CC12CCC(NC(=O)c3ccc(Cl)cc3NS(=O)(=O)CCC(F)(F)F)(CC1)CC2 [Example 135, 4-chloro-N-(4-cyanobicyclo[2.2.2]octan-1-yl)-2-((3,3,3-trifluoropropyl)sulfonamido)benzamide] | 1.62 | –
CS(=O)(=O)Nc1c(F)cccc1C(=O)NC12CC(C(F)(F)F)(C1)C2 [Example 136, 3-fluoro-2-(methylsulfonamido)-N-(3-(trifluoromethyl)bicyclo[1.1.1]pentan-1-yl)benzamide] | ≥ 100 | –
CS(=O)(=O)Nc1cc(F)ccc1C(=O)NC12CC(C1)C2 [Example 137, N-(bicyclo[1.1.1]pentan-1-yl)-4-fluoro-2-(methylsulfonamido)benzamide] | ≥ 100 | –
CS(=O)(=O)Nc1ccccc1C(=O)NC12CC(C(F)(F)F)(C1)C2 [Example 138, 2-(methylsulfonamido)-N-(3-(trifluoromethyl)bicyclo[1.1.1]pentan-1-yl)benzamide] | ≥ 100 | –
CS(=O)(=O)Nc1cc(F)ccc1C(=O)NC12C3C4C5C3C1C5C42 (centres unmarked) [Example 139, N-(cuban-1-yl)-4-fluoro-2-(methylsulfonamido)benzamide] | 23.7 | –
CS(=O)(=O)Nc1ccc(F)cc1C(=O)NC12CC(C(F)(F)F)(C1)C2 [Example 140, 5-fluoro-2-(methylsulfonamido)-N-(3-(trifluoromethyl)bicyclo[1.1.1]pentan-1-yl)benzamide] | 36.1 | –
O=C(NC12CC(C(F)(F)F)(C1)C2)c1ccccc1NS(=O)(=O)c1ccc(Cl)cc1Cl [Example 141, 2-((2,4-dichlorophenyl)sulfonamido)-N-(3-(trifluoromethyl)bicyclo[1.1.1]pentan-1-yl)benzamide] | 1.18 | –
CS(=O)(=O)Nc1cccc(F)c1C(=O)NC12CC(C(F)(F)F)(C1)C2 [Example 142, 2-fluoro-6-(methylsulfonamido)-N-(3-(trifluoromethyl)bicyclo[1.1.1]pentan-1-yl)benzamide] | ≥ 100 | –
O=C(NC12CC(C(F)(F)F)(C1)C2)c1ccccc1NS(=O)(=O)CC(F)(F)F [Example 143, 2-((2,2,2-trifluoroethyl)sulfonamido)-N-(3-(trifluoromethyl)bicyclo[1.1.1]pentan-1-yl)benzamide] | 10.2 | –
O=C(NC12CC(C(F)(F)F)(C1)C2)c1ccccc1NS(=O)(=O)C(F)(F)F [Example 144, N-(3-(trifluoromethyl)bicyclo[1.1.1]pentan-1-yl)-2-((trifluoromethyl)sulfonamido)benzamide] | 18.6 | –
CS(=O)(=O)Nc1c(F)cccc1C(=O)NC12CC(C(F)(F)F)(C1)C2 [Example 145, 3-fluoro-2-(methylsulfonamido)-N-(3-(trifluoromethyl)bicyclo[1.1.1]pentan-1-yl)benzamide] | – | ≥ 100
CS(=O)(=O)Nc1cc(S(F)(F)(F)(F)F)ccc1C(=O)NC12CC(C(F)(F)F)(C1)C2 [Example 146, 2-(methylsulfonamido)-4-(pentafluoro-λ^6-sulfanyl)-N-(3-(trifluoromethyl)bicyclo[1.1.1]pentan-1-yl)benzamide] | 0.677 | –
CS(=O)(=O)Nc1cc(C(F)(F)F)ccc1C(=O)NC12CC(C(F)(F)F)(C1)C2 [Example 147, 2-(methylsulfonamido)-4-(trifluoromethyl)-N-(3-(trifluoromethyl)bicyclo[1.1.1]pentan-1-yl)benzamide] | 1.58 | –
CS(=O)(=O)Nc1cc(C#N)ccc1C(=O)NC12CC(C(F)(F)F)(C1)C2 [Example 148, 4-cyano-2-(methylsulfonamido)-N-(3-(trifluoromethyl)bicyclo[1.1.1]pentan-1-yl)benzamide] | 17.7 | –
O=C(NC12CC(C(F)(F)F)(C1)C2)c1ccc(F)cc1NS(=O)(=O)c1ncccn1 [Example 149, 4-fluoro-2-(pyrimidine-2-sulfonamido)-N-(3-(trifluoromethyl)bicyclo[1.1.1]pentan-1-yl)benzamide] | ≥ 20 | –
CS(=O)(=O)c1ccc(NS(=O)(=O)c2ccc(S(F)(F)(F)(F)F)cc2)c(C(=O)NC23CC(C(F)(F)F)(C2)C3)c1 [Example 150, 5-(methylsulfonyl)-2-((4-(pentafluoro-λ^6-sulfanyl)phenyl)sulfonamido)-N-(3-(trifluoromethyl)bicyclo[1.1.1]pentan-1-yl)benzamide] | ≥ 20 | –
[2H]C([2H])([2H])C(c1ccc(S(=O)(=O)Nc2ccc(S(C)(=O)=O)cc2C(=O)NC23CC(C(F)(F)F)(C2)C3)cc1)(C([2H])([2H])[2H])C([2H])([2H])[2H] [Example 151, 2-((4-(2-(methyl-d3)propan-2-yl-1,1,1,3,3,3-d6)phenyl)sulfonamido)-5-(methylsulfonyl)-N-(3-(trifluoromethyl)bicyclo[1.1.1]pentan-1-yl)benzamide] | 9.39 | –
